# According to publication PMC7026418, “The kinase polypharmacology landscape of clinical PARP inhibitors” (Scientific Reports, 2020):
# Read-outs that look alike come from different tables or passages of the source.
# Columns and labels:
# Experiment in all cases: biochemical
# Set-up in all cases: DiscoveRx KINOMEscan active site-directed competition binding; percent of control kinase bound to immobilised ligand
# AMPK-alpha1 = molecular target: T1, AMPK-alpha1 (Homo sapiens, UniProt Q13131)
# T1 construct: gene PRKAA1
# CAMK2B = CAMK2B (Homo sapiens, UniProt Q13554)
# CSNK2A2 = CSNK2A2 (Homo sapiens, UniProt P19784)
# EPHA4 = EPHA4 (Homo sapiens, UniProt P54764)
# FLT3(ITD,F691L) = molecular target: T2, FLT3(ITD,F691L) (Homo sapiens, UniProt P36888, F691L/ITD)
# T2 sequence (P36888 564-993 F691L): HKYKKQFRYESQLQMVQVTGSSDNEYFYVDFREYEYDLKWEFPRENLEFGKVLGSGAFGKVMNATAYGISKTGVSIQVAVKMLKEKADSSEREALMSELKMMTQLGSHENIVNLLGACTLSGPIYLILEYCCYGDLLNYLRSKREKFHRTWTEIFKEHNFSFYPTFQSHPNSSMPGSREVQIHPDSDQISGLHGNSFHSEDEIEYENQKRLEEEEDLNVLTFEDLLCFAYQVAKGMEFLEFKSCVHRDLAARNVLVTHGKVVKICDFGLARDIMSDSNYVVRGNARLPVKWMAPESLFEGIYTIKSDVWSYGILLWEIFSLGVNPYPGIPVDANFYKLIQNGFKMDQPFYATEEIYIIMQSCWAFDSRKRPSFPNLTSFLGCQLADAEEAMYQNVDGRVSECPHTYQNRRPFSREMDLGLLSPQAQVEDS
# PAK7 = molecular target: T3, PAK7 (Homo sapiens, UniProt Q9P286)
# T3 construct: gene PAK5
# [1] = molecular target: T4, RSK3(Kin.Dom.1-N-terminal) (Homo sapiens, UniProt Q15349)
# T4 construct: gene RPS6KA2; Kin.Dom.1-N-terminal
# YANK3 = molecular target: T5, YANK3 (Homo sapiens, UniProt Q86UX6)
# T5 construct: gene STK32C
# YSK4 = molecular target: T6, YSK4 (Homo sapiens, UniProt Q56UN5)
# T6 construct: gene MAP3K19
# T6 sequence (Q56UN5 1-1328): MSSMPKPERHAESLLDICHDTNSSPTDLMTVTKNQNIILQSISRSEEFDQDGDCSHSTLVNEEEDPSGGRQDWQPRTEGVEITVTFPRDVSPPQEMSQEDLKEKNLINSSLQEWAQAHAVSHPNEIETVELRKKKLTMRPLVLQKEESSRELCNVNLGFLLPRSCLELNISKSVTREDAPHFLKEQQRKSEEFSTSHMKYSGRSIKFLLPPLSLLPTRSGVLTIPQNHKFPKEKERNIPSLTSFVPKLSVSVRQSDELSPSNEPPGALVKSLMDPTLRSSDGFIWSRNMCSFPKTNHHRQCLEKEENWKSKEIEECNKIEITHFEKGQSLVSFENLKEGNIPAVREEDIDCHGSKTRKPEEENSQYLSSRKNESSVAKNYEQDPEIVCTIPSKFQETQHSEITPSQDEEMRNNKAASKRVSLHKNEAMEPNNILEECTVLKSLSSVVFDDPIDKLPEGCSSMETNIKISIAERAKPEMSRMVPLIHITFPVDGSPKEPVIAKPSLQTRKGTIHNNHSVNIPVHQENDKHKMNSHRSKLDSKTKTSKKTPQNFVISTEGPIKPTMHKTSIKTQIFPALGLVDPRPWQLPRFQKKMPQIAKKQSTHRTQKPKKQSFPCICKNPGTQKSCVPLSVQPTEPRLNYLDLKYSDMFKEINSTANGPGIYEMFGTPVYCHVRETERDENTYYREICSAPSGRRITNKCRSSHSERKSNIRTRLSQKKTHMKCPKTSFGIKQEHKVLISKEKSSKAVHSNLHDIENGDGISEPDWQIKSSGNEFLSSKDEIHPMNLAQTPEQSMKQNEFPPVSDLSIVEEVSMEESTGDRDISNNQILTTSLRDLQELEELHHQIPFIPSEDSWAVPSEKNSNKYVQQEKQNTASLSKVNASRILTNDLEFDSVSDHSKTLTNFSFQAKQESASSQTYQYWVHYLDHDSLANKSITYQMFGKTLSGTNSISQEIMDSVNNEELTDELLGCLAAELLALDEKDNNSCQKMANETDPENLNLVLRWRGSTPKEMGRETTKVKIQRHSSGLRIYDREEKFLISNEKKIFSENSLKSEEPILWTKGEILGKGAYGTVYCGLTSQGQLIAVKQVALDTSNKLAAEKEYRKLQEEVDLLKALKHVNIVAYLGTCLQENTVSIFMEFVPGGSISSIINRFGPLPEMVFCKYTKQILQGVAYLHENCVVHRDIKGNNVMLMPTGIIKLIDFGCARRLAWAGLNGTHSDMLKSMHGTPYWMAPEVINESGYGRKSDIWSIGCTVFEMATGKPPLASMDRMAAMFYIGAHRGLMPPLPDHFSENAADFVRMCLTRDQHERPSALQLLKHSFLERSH
# [2] = read-out: Talazoparib (BMN 673) / %Ctrl @ 10000nM
# [3] = read-out: Olaparib / %Ctrl @ 10000nM
# [4] = read-out: Rucaparib / %Ctrl @ 10000nM, binding competition, % of control
# [5] = read-out: Niraparib (MK-4827) / %Ctrl @ 10000nM
# EPHA4, sequence (P54764 whole entry): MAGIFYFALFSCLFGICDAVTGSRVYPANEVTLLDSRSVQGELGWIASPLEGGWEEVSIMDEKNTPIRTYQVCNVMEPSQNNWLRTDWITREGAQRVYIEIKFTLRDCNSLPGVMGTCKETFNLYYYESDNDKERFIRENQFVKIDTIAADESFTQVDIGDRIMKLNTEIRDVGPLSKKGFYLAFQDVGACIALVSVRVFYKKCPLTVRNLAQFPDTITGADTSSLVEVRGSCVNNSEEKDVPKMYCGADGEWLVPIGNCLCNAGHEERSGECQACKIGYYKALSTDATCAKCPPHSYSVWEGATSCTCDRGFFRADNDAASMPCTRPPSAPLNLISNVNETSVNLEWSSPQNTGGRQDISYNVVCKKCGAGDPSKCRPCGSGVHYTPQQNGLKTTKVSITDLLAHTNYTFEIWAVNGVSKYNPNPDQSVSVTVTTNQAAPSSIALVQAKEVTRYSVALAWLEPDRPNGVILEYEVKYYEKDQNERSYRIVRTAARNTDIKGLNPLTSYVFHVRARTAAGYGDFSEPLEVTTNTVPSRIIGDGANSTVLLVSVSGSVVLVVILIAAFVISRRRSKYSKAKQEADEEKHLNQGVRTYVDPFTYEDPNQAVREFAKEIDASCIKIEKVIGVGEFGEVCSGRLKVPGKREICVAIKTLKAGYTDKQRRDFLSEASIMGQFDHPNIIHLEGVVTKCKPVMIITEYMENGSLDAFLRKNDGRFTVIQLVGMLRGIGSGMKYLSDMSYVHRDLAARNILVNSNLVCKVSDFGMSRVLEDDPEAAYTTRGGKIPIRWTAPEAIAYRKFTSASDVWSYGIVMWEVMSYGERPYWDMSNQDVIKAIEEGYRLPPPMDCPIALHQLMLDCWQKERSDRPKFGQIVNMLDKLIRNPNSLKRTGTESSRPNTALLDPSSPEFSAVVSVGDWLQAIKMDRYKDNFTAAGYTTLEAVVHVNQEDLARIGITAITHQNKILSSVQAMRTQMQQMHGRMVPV
# T4 sequence (Q15349 whole entry): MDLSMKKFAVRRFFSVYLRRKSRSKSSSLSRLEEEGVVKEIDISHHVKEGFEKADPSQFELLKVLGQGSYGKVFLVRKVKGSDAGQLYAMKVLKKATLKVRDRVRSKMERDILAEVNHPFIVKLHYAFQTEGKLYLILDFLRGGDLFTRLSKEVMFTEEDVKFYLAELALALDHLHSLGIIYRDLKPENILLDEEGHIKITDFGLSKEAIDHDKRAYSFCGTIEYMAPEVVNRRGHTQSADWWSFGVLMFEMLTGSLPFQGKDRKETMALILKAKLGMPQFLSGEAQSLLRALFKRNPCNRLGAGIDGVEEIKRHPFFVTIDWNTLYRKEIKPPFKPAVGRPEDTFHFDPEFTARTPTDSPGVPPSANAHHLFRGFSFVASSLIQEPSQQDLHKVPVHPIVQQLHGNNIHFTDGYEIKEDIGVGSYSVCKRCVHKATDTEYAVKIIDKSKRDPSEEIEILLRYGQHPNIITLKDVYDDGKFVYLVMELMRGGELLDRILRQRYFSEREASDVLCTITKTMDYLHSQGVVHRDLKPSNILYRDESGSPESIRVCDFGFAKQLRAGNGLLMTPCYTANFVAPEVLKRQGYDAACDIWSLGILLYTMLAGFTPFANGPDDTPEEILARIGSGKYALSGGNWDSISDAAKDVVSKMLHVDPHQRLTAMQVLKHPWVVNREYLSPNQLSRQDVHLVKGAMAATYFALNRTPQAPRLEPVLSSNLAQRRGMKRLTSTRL
# CSNK2A2, sequence (P19784 whole entry): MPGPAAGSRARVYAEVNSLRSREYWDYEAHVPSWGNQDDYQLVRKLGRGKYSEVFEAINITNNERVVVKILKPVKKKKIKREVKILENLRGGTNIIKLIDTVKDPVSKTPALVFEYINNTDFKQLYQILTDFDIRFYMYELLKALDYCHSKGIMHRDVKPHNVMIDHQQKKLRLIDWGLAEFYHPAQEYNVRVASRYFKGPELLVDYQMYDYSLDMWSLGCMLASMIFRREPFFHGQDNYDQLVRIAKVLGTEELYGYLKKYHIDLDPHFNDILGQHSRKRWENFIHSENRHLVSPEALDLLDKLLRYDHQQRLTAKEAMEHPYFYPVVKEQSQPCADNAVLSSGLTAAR
# T1 sequence (Q13131 whole entry): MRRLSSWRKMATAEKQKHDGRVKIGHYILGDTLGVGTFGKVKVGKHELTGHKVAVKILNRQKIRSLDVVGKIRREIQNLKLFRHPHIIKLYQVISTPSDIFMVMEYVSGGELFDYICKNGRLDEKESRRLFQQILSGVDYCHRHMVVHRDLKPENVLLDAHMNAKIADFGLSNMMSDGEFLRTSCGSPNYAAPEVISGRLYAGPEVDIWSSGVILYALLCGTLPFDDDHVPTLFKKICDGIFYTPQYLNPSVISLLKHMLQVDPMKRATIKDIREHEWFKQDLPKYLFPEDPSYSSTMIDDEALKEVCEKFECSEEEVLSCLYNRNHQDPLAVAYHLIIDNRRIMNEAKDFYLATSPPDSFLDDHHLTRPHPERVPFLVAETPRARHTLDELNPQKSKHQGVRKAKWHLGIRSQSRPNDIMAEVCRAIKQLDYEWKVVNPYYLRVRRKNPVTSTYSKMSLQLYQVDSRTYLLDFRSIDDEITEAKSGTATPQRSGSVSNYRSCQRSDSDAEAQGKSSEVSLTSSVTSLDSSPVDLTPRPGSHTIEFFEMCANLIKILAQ
# CAMK2B, sequence (Q13554 whole entry): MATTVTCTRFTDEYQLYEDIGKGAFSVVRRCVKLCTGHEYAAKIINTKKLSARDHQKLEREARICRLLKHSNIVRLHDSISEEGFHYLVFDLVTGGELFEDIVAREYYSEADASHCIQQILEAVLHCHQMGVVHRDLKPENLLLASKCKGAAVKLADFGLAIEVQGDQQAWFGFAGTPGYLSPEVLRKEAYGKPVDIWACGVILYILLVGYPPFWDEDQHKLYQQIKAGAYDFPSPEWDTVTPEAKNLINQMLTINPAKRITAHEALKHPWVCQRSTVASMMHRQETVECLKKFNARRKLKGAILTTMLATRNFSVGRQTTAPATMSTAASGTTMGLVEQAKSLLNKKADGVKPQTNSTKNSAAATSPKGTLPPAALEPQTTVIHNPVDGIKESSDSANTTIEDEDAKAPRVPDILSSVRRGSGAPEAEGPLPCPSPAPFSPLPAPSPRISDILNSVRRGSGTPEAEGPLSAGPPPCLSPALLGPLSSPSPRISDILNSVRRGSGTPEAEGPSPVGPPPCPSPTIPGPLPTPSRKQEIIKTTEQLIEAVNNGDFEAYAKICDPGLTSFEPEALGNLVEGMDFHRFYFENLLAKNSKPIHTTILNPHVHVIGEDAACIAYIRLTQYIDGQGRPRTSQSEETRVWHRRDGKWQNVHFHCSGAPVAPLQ
# T5 sequence (Q86UX6 whole entry): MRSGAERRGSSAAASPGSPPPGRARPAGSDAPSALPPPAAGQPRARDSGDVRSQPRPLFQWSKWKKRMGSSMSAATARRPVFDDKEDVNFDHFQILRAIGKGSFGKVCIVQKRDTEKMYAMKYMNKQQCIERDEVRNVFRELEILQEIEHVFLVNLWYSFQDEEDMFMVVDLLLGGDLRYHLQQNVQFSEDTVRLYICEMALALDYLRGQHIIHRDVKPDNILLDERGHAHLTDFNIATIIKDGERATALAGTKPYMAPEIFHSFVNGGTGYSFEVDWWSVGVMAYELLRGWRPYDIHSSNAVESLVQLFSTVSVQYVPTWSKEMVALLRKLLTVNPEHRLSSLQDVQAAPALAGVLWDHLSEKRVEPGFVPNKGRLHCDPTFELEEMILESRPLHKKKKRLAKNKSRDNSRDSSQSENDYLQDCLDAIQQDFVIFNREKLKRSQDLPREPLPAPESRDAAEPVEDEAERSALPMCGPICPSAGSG
# T3 sequence (Q9P286 whole entry): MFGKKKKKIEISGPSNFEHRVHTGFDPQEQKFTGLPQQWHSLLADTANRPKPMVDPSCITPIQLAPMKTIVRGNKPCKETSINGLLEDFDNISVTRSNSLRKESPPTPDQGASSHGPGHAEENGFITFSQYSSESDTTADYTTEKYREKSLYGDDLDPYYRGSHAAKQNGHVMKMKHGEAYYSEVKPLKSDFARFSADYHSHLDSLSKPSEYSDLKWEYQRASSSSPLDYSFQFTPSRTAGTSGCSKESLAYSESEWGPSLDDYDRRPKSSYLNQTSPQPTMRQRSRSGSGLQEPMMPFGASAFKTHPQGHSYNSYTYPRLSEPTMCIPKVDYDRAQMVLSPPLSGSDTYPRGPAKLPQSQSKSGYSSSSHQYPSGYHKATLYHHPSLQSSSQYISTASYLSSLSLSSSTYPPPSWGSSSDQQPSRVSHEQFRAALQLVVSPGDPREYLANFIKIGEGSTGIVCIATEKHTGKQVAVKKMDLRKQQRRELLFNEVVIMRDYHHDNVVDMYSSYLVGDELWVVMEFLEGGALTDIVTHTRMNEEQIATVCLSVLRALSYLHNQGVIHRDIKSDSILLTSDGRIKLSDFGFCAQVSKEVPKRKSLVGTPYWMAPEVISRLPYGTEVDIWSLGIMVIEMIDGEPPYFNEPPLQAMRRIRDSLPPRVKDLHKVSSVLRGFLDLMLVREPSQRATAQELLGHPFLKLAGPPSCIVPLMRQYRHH
smiles,measurement,setting,value
Cn1ncnc1[C@H]1c2n[nH]c(=O)c3cc(F)cc(c23)N[C@@H]1c1ccc(F)cc1 [Talazoparib],percent of control binding at 10 µM,AMPK-alpha1; [2],100%
same,percent of control binding at 10 µM,CAMK2B; [2],92%
same,percent of control binding at 10 µM,CSNK2A2; [2],77%
same,percent of control binding at 10 µM,EPHA4; [2],100%
same,percent of control binding at 10 µM,"FLT3(ITD,F691L); [2]",100%
same,percent of control binding at 10 µM,PAK7; [2],100%
same,percent of control binding at 10 µM,[1]; [2],84%
same,percent of control binding at 10 µM,YANK3; [2],85%
same,percent of control binding at 10 µM,YSK4; [2],89%
O=C(c1cc(Cc2n[nH]c(=O)c3ccccc23)ccc1F)N1CCN(C(=O)C2CC2)CC1 [Olaparib],percent of control binding at 10 µM,AMPK-alpha1; [3],98%
same,percent of control binding at 10 µM,CAMK2B; [3],96%
same,percent of control binding at 10 µM,CSNK2A2; [3],83%
same,percent of control binding at 10 µM,EPHA4; [3],92%
same,percent of control binding at 10 µM,"FLT3(ITD,F691L); [3]",84%
same,percent of control binding at 10 µM,PAK7; [3],100%
same,percent of control binding at 10 µM,[1]; [3],97%
same,percent of control binding at 10 µM,YANK3; [3],83%
same,percent of control binding at 10 µM,YSK4; [3],65%
CNCc1ccc(-c2[nH]c3cc(F)cc4c3c2CCNC4=O)cc1 [Rucaparib],percent of control binding at 10 µM,AMPK-alpha1; [4],92%
same,percent of control binding at 10 µM,CAMK2B; [4],86%
same,percent of control binding at 10 µM,CSNK2A2; [4],2%
same,percent of control binding at 10 µM,EPHA4; [4],97%
same,Rucaparib / %Ctrl @ 10000nM,"FLT3(ITD,F691L); binding competition, % of control",26%
same,percent of control binding at 10 µM,PAK7; [4],86%
same,percent of control binding at 10 µM,[1]; [4],99%
same,percent of control binding at 10 µM,YANK3; [4],72%
same,percent of control binding at 10 µM,YSK4; [4],58%
NC(=O)c1cccc2cn(-c3ccc([C@@H]4CCCNC4)cc3)nc12 [Niraparib],percent of control binding at 10 µM,AMPK-alpha1; [5],77%
same,percent of control binding at 10 µM,CAMK2B; [5],90%
same,percent of control binding at 10 µM,CSNK2A2; [5],1.2%
same,percent of control binding at 10 µM,EPHA4; [5],83%
same,percent of control binding at 10 µM,"FLT3(ITD,F691L); [5]",42%
same,percent of control binding at 10 µM,PAK7; [5],86%
same,percent of control binding at 10 µM,[1]; [5],74%
same,percent of control binding at 10 µM,YANK3; [5],86%
same,percent of control binding at 10 µM,YSK4; [5],63%
